The values below come from patent US9260417B2, “Therapeutic methods and compositions involving allosteric kinase inhibition” (AMITECH THERAPEUTIC SOLUTIONS, INC., priority 2010, dated 2016).

One experiment deals with MET M1250T (Homo sapiens (Human), UniProt P08581, M1250T). Kind of experiment: In vitro kinase panel (SelectScreen). The class given is biochemical. From the text:
(§1) In vitro kinase screen and competitive binding assay. Sorafenib as well as test compounds were submitted to Invitrogen and screened using their SelectScreen™ Profiling Service.

Another experiment concerns the target CDK2 (Homo sapiens (Human), UniProt P24941). Kind of experiment: In vitro kinase panel (SelectScreen). The class given is biochemical.
Description: as §1

A further experiment addresses CRAF Y340D Y341D (Homo sapiens (Human), UniProt P04049, Y340D/Y341D). Description: In vitro kinase panel (SelectScreen). Type of experiment: biochemical.
Description: as §1

For the next experiment, the target named is PKC eta (Homo sapiens (Human), UniProt P24723). Kind of experiment: In vitro kinase panel (SelectScreen). The class given is biochemical.
Chain of PKC eta (P24723 whole entry): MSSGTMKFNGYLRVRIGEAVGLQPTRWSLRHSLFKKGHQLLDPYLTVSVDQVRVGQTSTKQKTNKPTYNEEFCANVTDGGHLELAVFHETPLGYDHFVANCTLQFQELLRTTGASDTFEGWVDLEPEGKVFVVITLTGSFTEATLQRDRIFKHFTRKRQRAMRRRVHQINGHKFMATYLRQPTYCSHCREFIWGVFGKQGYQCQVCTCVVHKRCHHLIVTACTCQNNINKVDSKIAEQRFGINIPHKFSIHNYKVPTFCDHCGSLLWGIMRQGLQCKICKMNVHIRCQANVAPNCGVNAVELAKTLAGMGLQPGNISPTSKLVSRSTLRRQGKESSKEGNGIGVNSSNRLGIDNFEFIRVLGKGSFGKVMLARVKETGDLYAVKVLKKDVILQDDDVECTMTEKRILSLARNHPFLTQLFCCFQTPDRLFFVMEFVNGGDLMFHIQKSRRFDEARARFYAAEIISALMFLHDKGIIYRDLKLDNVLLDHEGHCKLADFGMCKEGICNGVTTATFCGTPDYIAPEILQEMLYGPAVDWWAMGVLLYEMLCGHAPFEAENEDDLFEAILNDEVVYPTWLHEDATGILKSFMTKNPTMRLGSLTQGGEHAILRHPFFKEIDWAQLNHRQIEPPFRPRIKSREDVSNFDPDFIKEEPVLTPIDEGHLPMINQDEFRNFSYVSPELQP
Description: as §1

A further experiment deals with ERK2 (Homo sapiens (Human), UniProt P28482). Description: In vitro kinase panel (SelectScreen). Type of experiment: biochemical.
Description: as §1

For the next experiment, the target named is MAPKAPK2 (Homo sapiens (Human), UniProt P49137). Kind of experiment: In vitro kinase panel (SelectScreen). The class given is biochemical. The note with it: for % Inhibition at 10 μM: MAPKAPK2.
Description: as §1

The target of a further experiment is PDGFR beta (Homo sapiens (Human), UniProt P09619). Kind of experiment: In vitro kinase panel (SelectScreen). Type of experiment: biochemical.
Chain of PDGFR beta (P09619 33-1106): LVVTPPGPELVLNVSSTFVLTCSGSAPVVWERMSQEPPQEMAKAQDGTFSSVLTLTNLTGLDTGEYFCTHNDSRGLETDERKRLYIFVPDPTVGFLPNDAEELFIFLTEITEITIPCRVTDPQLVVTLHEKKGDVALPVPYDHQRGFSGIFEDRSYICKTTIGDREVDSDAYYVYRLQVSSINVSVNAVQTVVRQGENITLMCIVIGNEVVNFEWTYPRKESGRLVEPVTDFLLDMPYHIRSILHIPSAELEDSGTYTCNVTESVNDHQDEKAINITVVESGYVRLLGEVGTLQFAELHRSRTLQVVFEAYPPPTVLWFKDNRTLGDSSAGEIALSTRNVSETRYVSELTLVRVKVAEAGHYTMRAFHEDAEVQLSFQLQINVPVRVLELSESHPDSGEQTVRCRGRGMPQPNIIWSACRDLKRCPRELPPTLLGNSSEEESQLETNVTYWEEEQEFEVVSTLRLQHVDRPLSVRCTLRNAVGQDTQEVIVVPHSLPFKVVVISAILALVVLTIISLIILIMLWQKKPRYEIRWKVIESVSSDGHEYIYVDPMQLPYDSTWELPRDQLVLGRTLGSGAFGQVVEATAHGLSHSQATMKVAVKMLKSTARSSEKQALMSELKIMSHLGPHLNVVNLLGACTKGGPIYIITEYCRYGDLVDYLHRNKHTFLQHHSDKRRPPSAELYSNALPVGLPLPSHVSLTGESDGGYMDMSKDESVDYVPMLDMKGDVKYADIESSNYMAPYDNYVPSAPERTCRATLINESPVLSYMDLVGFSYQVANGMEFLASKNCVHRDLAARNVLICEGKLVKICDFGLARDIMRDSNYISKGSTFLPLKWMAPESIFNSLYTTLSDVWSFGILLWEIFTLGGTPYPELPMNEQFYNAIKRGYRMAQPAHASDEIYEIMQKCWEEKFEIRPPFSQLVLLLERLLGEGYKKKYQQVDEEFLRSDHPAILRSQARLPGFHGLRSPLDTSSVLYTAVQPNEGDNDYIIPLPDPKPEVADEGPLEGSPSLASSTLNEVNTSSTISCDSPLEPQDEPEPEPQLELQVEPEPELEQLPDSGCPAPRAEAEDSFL
Description: as §1

The next experiment concerns the target PKC beta II (Homo sapiens (Human), UniProt P05771). Kind of experiment: In vitro kinase panel (SelectScreen). Type of experiment: biochemical.
Description: as §1

Another experiment addresses CK2 alpha 1 (Homo sapiens (Human), UniProt P68400). Description: In vitro kinase panel (SelectScreen). Type of experiment: biochemical.
Description: as §1

A further experiment concerns the target PAK2 (Homo sapiens (Human), UniProt Q13177). Kind of experiment: In vitro kinase panel (SelectScreen). Type of experiment: biochemical.
Description: as §1

In another experiment the target is FGFR3 (Homo sapiens (Human), UniProt P22607). Kind of experiment: In vitro kinase panel (SelectScreen). The class given is biochemical.
Chain of FGFR3 (P22607 23-806): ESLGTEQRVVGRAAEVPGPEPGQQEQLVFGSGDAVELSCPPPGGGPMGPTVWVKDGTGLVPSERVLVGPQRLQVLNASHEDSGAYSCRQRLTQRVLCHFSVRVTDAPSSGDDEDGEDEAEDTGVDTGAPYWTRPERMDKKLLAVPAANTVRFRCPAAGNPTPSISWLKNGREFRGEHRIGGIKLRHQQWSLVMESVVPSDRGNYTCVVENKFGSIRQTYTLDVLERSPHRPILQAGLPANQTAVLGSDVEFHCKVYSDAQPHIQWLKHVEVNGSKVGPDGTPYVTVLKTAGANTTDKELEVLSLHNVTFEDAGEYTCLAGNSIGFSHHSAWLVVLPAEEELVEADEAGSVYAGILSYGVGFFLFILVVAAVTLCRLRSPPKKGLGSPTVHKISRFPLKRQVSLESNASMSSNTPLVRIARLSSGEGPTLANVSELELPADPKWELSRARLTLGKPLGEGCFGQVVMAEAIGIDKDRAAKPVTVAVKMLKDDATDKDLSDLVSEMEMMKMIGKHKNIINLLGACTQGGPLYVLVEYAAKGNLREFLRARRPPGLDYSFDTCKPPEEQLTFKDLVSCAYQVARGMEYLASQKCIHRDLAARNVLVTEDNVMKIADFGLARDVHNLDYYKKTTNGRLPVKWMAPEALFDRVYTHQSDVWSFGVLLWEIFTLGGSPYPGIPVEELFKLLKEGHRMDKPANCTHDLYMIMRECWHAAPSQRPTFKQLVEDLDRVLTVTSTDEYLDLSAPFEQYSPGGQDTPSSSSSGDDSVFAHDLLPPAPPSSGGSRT
Description: as §1

A further experiment has as its target FLT1 (VEGFR1) (Homo sapiens (Human), UniProt P17948). Description: In vitro kinase panel (SelectScreen). The class given is biochemical.
Description: as §1

The target in the next experiment is PKC iota (Homo sapiens (Human), UniProt P41743). Description: In vitro kinase panel (SelectScreen). Type of experiment: biochemical.
Chain of PKC iota (P41743 whole entry): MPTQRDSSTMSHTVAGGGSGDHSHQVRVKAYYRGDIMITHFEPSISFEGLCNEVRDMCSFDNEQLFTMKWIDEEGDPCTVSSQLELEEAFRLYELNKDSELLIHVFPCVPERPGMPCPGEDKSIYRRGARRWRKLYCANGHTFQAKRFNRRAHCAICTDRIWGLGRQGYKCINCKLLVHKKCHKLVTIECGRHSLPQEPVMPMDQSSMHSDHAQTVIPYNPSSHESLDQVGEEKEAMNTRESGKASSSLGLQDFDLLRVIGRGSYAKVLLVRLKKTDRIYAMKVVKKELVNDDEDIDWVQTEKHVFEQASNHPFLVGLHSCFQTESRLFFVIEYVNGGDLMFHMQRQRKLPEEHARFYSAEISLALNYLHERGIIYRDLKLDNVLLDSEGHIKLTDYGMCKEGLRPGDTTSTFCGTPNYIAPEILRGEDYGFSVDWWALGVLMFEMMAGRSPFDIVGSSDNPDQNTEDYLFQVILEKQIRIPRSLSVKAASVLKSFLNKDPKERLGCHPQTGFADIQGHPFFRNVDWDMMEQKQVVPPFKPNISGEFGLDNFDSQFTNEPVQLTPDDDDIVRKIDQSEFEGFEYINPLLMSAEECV
Description: as §1

The target in another experiment is AKT1 (Homo sapiens (Human), UniProt P31749). Kind of experiment: In vitro kinase panel (SelectScreen). Type of experiment: biochemical.
Description: as §1

A further experiment addresses JNK2 (Homo sapiens (Human), UniProt P45984). Description: In vitro kinase panel (SelectScreen). The class given is biochemical.
Description: as §1

For another experiment, the target named is MEK2 (Homo sapiens (Human), UniProt P36507). Kind of experiment: In vitro kinase panel (SelectScreen). The class given is biochemical.
Chain of MEK2 (P36507 whole entry): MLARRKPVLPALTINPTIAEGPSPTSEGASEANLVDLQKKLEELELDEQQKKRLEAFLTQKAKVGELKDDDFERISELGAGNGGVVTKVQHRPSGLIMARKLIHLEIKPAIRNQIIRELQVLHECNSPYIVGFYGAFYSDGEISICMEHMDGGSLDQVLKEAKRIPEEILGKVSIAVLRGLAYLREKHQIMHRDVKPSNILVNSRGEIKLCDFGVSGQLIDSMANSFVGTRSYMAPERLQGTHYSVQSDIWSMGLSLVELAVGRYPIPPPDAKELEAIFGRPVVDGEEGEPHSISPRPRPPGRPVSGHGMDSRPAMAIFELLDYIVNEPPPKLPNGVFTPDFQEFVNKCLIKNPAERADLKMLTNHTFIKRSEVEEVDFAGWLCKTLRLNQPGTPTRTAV
Description: as §1

The test system of experiment [1] is HUVECs co-cultured with hTERT-human hepatic stellate cells. Description: Stellate cell/endothelial cell co-culture tube formation assay. The class given is cell-based. The following applies: […] 6, […] 3, 1.0 μM imatinib, 0.5 μM GW 5074. The protocol: One representative panel from 3 independent experiments is shown. […] Scale bar=200 μm.
The stellate cells were washed in PBS and mixed with early passage HUVECs (p<5) at a ratio of 1:4 and mixed into a 3.75 mg/ml Type 1 Rat tail collagen matrix (BD Biosciences) in M-199 media. 30 μl of this mixture was seeded onto each well of a half-area 96 well plate (Corning). The collagen was allowed to polymerize for 30 min at 37° C. and […] of complete EBM-2 media was added to each well. Various inhibitors were serially diluted in DMSO and subsequently added to duplicate wells 6 h post cell seeding. […] The endothelial tubes and the stellate cells were imaged at 48 h with a 10× objective on a confocal microscope. Images were collected across five fields per well.
Stellate cell/endothelial cell tube formation assay and mouse matrigel model. This assay was performed as described in the SI Methods. The stellate cells were a gift from Dr. David Brenner and previously described (Schnabl, et al. (2002) Laboratory investigation; a journal of technical methods and pathology 82:323-333). […] The mouse matrigel model was performed as previously described (Eliceiri, et al. (1999) Molecular cell 4:915-924 5) and further details of immunohistochemistry and animal dosing can be found herein.
To validate the findings of Example 10, a co-culture angiogenesis assay was utilized to evaluate similar combinations of PDGFR and RAF inhibitors. In the assay, HUVECs are mixed with hepatic stellate cells (a pericyte found in the perisinusoidal space of the liver) in a 3D-collagen gel. The co-culture produced endothelial tubes with pericyte contacts (from the stellate cells) that can be imaged and quantified as shown in FIGS. 4B and C.

In another experiment the test system is XPA-1 cells. Description: Cell cycle analysis of XPA-1 cells (flow cytometry). The class given is cell-based. The note with it: 5 μM, 20 h. The protocol:
For cell cycle analysis, cells were grown in complete DMEM+10% FBS in the presence of each inhibitor and harvested after 20 h of inhibitor treatment. Cell cycle analysis was performed by flow cytometry following propidium iodide staining. The cells were harvested, fixed with ice cold methanol, treated for 45 min with 10 μg/ml of RNAse and resuspended in PBS containing 10 μg/ml of PI, and analysed by flow cytometry. […] For corresponding confocal microscopy images, cells attached to coverslips were fixed with cold methanol and permeabilized in PBS containing 0.1% triton X-100 for two minutes and blocked for 60 minutes, at room temperature with 2% BSA in PBS. Cells were stained with the DNA binding dye TOPRO-3 (Invitrogen) to label the DNA and laminB (Santa Cruz) to label the nuclear envelope. The anti-Lamin B antibody was used at a 1:100 dilution for two hours at room temperature. After washing several times with PBS, cells were stained for two hours at room temperature, with secondary antibody diluted 1:300 and co-incubated with TOPRO-3 (1:500) (Invitrogen). Samples were mounted in Vectashield hard-set mounting media (Vector Laboratories) and imaged on a Nikon Eclipse Cl confocal microscope with a 1.4 NA 60× oil-immersion lens, using minimum pinhole (30 μm). Images were captured and processed using EZ-C1 3.50 imaging software (Nikon, Inc). Scale bars, 10 μm.

The target in a further experiment is EGFR (Homo sapiens (Human), UniProt P00533). Kind of experiment: In vitro kinase panel (SelectScreen). Type of experiment: biochemical.
The target of another experiment is CRAF S338 (Mus musculus (Mouse), UniProt Q99N57). Kind of experiment: CRAF S338 phosphorylation in R40P cells (Western). The following applies: 12 h, sorafenib 5 μM, compound 6 5, 2.5, 1.25 μM. Type of experiment: cell-based. The protocol:
R40P cells are derived from a spontaneous pancreatic adenocarcinoma mouse model which expresses K-ras^G12D while p16/Ink4a/ARF is lost. […] At this time the cells were lysed and protein levels were quantified by BCA analysis. The lysates were then loaded on an SDS-PAGE gel and transferred to nitrocellulose for Western blotting. Immunoblotting was performed with the following antibodies: pMEK1/2 S217/S221 (Cell Signaling), pCRAF S338 (Cell Signaling), and total CRAF (BD Biosciences). Chemilluminescence was used for detection on film.

Chain of CRAF Y340D Y341D (P04049 whole entry Y340D/Y341D): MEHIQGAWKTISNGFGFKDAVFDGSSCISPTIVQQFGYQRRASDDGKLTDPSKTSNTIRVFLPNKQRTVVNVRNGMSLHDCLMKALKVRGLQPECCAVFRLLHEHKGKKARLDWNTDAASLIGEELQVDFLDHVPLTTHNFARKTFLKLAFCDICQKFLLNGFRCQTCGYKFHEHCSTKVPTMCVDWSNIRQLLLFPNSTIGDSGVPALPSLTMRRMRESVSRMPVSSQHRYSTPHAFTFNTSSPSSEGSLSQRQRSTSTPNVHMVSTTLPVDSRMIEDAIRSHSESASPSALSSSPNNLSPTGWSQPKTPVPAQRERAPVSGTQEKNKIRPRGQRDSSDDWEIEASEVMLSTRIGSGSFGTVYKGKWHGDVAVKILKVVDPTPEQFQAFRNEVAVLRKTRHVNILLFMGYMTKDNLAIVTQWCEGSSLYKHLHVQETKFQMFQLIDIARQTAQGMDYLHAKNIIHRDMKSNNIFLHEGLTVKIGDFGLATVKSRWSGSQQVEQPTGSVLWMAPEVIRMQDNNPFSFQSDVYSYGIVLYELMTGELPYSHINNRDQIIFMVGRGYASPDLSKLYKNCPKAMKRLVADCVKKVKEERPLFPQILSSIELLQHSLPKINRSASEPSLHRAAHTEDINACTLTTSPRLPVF
Chain of JNK2 (P45984 whole entry): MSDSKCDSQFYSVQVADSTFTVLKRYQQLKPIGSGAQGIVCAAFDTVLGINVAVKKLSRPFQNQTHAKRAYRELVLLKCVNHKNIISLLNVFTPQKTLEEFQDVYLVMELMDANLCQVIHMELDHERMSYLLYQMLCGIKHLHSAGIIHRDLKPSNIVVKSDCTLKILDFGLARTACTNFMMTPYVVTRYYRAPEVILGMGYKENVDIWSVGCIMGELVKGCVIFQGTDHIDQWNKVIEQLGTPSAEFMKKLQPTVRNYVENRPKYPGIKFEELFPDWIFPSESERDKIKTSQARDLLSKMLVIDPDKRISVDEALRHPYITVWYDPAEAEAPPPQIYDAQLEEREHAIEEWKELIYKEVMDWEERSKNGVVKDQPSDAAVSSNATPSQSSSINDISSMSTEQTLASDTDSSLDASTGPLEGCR
Chain of CK2 alpha 1 (P68400 whole entry): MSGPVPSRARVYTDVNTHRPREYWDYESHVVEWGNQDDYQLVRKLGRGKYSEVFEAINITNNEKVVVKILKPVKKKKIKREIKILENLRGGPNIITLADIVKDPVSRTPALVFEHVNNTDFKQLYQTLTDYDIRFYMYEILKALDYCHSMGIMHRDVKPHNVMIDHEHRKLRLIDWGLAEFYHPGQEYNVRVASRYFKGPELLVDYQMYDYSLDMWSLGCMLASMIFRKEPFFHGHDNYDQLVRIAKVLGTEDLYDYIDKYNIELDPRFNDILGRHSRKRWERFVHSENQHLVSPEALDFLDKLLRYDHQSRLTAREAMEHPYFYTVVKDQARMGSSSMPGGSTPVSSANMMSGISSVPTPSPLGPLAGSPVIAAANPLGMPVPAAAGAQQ

In the case of `Nc1cc(Oc2ccc(-c3nnc(Nc4cccc(C(F)(F)F)c4)[nH]3)cc2)ncn1` [Compound 3], the “% Inhibition at 10 μM” value on MET M1250T was 4%; at CDK2, 2%; at CRAF Y340D Y341D, 38%; on PKC eta, 1%; at ERK2, −4%; on MAPKAPK2, 1%. The “% Inhibition at 10 μM” value on PDGFR beta was 35%; at PKC beta II, −3%; on CK2 alpha 1, −3%; on PAK2, 2%; at FGFR3, −12%; on FLT1 (VEGFR1) it was 5%. For the same compound, the “% Inhibition at 10 μM” value on PKC iota is −2%; at AKT1 it was 1%; on JNK2, −7%; at MEK2 it was −8%; at EGFR, −2%. Further, the “endothelial tube formation and % pericyte-covered tube length” value in [1] is “did not affect endothelial tube formation”. For the same compound, the “cell cycle / mitotic progression” value in the experiment with XPA-1 cells is “showed no effect”.

For `CSc1nc(N)cc(Oc2ccc(-c3nnc(Nc4cccc(C(F)(F)F)c4)[nH]3)cc2)n1` [Compound 6], the “% Inhibition at 10 μM” value on MET M1250T is reported as −1%; at CDK2 it was 2%; on CRAF Y340D Y341D it was 3%; on PKC eta, 3%; on ERK2, −5%; on MAPKAPK2, 2%. For the same compound, the “% Inhibition at 10 μM” value was 20% on PDGFR beta; −4% at PKC beta II; 0% on CK2 alpha 1; 1% at PAK2; −13% at FGFR3; −2% on FLT1 (VEGFR1). The “% Inhibition at 10 μM” value on PKC iota is on record as 0%; on AKT1 it was 2%; at JNK2, −4%; on MEK2, −6%; on EGFR it was −3%. In addition, on CRAF S338, the “phosphorylation on CRAF S338” value is reported as “does not promote this increase”. The “endothelial tube formation and % pericyte-covered tube length” value in [1] was “dramatic reduction”. For the same compound, in the experiment on XPA-1 cells, the “cell cycle / mitotic progression” value is recorded as “G2/M arrest in all tumor cell lines tested”.

Turning to `CNC(=O)c1cc(Oc2ccc(NC(=O)Nc3ccc(Cl)c(C(F)(F)F)c3)cc2)ccn1` [sorafenib, reference compound], the inhibition at 10 µM was 3% against MET M1250T; 2% on CDK2; 95% on CRAF Y340D Y341D; 2% against PKC eta; 0% against ERK2; 2% on MAPKAPK2 (read-out: % Inhibition at 10 μM). In addition, the inhibition at 10 µM was 93% on PDGFR beta; -3% against PKC beta II; -3% at CK2 alpha 1; 2% against PAK2; 37% against FGFR3; 93% on FLT1 (VEGFR1). Moreover, the inhibition at 10 µM on PKC iota was -2%; against AKT1, 2%; at JNK2, 10%; on MEK2, -4%. At CRAF S338, the “phosphorylation on CRAF S338” value is “induces an increase”. In the experiment with XPA-1 cells, the “cell cycle / mitotic progression” value was “had no effect on mitotic progression”.
